Test results published in ChEMBL document CHEMBL1156502, “Stabilized immune modulatory RNA compounds as agonists of Toll-like receptors 7 and 8” (Proc Natl Acad Sci U S A, 2007).
Active and inactive are the calls of the source. The calls are words filed in the database; no cut-off is given here.

Columns and labels:
[1] = biological target: T1, Toll-like receptor 7 (Homo sapiens) (UniProt Q9NYK1); assay: Activation of human TLR7 expressed in HEK293 cells assessed as increase in NF-kappaB activation at 100 ug/ml by SEAP assay; assay type: cell-based
T1 sequence (whole entry): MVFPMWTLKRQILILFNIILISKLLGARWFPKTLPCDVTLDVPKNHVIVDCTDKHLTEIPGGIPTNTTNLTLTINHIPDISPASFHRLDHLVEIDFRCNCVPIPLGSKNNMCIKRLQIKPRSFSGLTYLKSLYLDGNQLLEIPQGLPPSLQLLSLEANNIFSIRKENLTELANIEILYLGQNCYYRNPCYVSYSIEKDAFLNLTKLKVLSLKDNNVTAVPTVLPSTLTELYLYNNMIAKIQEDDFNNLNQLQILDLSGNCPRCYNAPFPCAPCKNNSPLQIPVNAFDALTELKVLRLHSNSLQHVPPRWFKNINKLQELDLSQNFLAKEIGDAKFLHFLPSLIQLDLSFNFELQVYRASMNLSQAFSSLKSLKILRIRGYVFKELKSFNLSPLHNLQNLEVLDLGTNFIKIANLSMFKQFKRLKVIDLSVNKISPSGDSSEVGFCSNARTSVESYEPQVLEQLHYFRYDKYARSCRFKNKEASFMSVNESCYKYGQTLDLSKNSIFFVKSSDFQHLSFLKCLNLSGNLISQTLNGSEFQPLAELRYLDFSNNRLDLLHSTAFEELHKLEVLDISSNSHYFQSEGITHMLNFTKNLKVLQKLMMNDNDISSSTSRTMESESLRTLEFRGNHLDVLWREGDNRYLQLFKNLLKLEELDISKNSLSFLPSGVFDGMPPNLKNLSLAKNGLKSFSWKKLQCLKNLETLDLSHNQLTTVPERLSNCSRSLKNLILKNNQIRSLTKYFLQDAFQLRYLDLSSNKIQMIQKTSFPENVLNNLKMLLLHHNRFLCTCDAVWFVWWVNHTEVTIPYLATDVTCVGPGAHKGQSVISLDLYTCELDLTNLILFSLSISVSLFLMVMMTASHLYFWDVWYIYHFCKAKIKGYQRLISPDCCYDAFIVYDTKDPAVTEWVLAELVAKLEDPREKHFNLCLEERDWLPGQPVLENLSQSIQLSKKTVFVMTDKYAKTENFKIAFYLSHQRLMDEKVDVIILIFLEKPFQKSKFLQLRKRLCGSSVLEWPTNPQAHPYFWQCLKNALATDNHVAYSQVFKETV

[2] = Stability in 1% human serum assessed as full length product after 10 mins; assay type: ADME, cell-free
[3] = biological target: T2, Toll-like receptor 8 (Homo sapiens) (UniProt Q9NR97); assay: Activation of human TLR8 expressed in HEK293 cells assessed as increase in NF-kappaB activation at 100 ug/ml by SEAP assay; assay type: cell-based
T2 sequence (whole entry): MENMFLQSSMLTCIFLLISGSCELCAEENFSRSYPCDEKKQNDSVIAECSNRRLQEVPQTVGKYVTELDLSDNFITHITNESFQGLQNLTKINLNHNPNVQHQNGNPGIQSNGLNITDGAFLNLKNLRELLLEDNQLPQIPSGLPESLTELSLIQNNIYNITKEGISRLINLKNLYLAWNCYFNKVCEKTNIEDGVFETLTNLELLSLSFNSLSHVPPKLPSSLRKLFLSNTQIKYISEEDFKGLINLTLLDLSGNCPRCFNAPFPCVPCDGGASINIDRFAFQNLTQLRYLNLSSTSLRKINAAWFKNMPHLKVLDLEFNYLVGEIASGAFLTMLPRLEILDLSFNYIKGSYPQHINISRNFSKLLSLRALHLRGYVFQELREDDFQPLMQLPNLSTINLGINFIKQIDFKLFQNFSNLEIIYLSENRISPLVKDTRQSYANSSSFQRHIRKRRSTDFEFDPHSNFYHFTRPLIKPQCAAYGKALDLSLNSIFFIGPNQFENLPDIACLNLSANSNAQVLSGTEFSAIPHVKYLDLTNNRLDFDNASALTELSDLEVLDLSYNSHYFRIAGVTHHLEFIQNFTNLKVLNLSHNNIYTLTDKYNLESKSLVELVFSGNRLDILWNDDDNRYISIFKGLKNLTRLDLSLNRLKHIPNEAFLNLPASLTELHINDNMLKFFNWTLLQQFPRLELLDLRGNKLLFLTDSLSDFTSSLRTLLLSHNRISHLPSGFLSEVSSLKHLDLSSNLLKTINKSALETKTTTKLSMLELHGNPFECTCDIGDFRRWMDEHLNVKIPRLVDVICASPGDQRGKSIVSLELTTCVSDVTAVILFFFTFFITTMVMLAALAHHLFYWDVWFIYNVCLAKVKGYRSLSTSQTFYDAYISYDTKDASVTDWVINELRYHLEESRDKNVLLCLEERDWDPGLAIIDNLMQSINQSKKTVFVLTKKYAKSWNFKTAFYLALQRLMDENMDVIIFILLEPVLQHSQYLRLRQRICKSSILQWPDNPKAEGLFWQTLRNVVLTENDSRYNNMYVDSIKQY

Activity [1]	remaining at 10 min ([2]; read-out: Stability)	Activity [3]	remaining at 10 min ([2]; read-out: Activity)	SMILES
inactive	1%	–	–	Nc1ccn([C@@H]2O[C@H](COP(O)(=S)O[C@H]3[C@@H](O)[C@H](n4ccc(N)nc4=O)O[C@@H]3COP(O)(=S)O[C@H]3[C@@H](O)[C@H](n4cnc5c(=O)[nH]c(N)nc54)O[C@@H]3COP(O)(=S)O[C@H]3[C@@H](O)[C@H](n4ccc(N)nc4=O)O[C@@H]3COP(O)(=S)O[C@H]3[C@@H](O)[C@H](n4ccc(=O)[nH]c4=O)O[C@@H]3COP(O)(=S)O[C@H]3[C@@H](O)[C@H](n4cnc5c(N)ncnc54)O[C@@H]3COP(O)(=S)O[C@H]3[C@@H](O)[C@H](n4ccc(N)nc4=O)O[C@@H]3COP(O)(=S)O[C@H]3[C@@H](O)[C@H](n4cnc5c(N)ncnc54)O[C@@H]3COP(O)(=S)O[C@H]3[C@@H](O)[C@H](n4cnc5c(=O)[nH]c(N)nc54)O[C@@H]3COP(O)(=S)O[C@H]3[C@@H](O)[C@H](n4cnc5c(N)ncnc54)O[C@@H]3COP(O)(=S)O[C@H]3[C@@H](O)[C@H](n4cnc5c(N)ncnc54)O[C@@H]3CO)[C@@H](OP(O)(=S)OC[C@H]3O[C@@H](n4ccc(=O)[nH]c4=O)[C@H](O)[C@@H]3OP(O)(=S)OC[C@H]3O[C@@H](n4cnc5c(=O)[nH]c(N)nc54)[C@H](O)[C@@H]3OP(O)(=S)OC[C@H]3O[C@@H](n4cnc5c(=O)[nH]c(N)nc54)[C@H](O)[C@@H]3OP(O)(=S)OC[C@H]3O[C@@H](n4ccc(=O)[nH]c4=O)[C@H](O)[C@@H]3OP(O)(=S)OC[C@H]3O[C@@H](n4ccc(=O)[nH]c4=O)[C@H](O)[C@@H]3OP(O)(=S)OC[C@H]3O[C@@H](n4cnc5c(N)ncnc54)[C@H](O)[C@@H]3O)[C@H]2O)c(=O)n1 (stereo partly specified)
–	–	inactive	79%	Nc1ccn([C@@H]2O[C@H](CO)[C@@H](OP(O)(=S)OC[C@H]3O[C@@H](n4ccc(=O)[nH]c4=O)[C@H](O)[C@@H]3OP(O)(=S)OC[C@H]3O[C@@H](n4ccc(=O)[nH]c4=O)[C@H](O)[C@@H]3OP(O)(=S)OC[C@H]3O[C@@H](n4ccc(=O)[nH]c4=O)[C@H](O)[C@@H]3OP(O)(=S)OC[C@H]3O[C@@H](n4cnc5c(=O)[nH]c(N)nc54)[C@H](O)[C@@H]3OP(O)(=S)OC[C@H]3O[C@@H](n4cnc5c(=O)[nH]c(N)nc54)[C@H](O)[C@@H]3OP(O)(=S)OC[C@H]3O[C@@H](n4ccc(=O)[nH]c4=O)[C@H](O)[C@@H]3OP(O)(=S)OC[C@H]3O[C@@H](n4cnc5c(=O)[nH]c(N)nc54)[C@H](O)[C@@H]3OP(O)(=S)OC[C@H]3O[C@@H](n4ccc(=O)[nH]c4=O)[C@H](O)[C@@H]3OP(O)(=S)OC[C@H]3O[C@@H](n4cnc5c(=O)[nH]c(N)nc54)[C@H](O)[C@@H]3OP(O)(=S)OC[C@H]3O[C@@H](n4ccc(=O)[nH]c4=O)[C@H](O)[C@@H]3OP(O)(=S)OCC(O)COP(O)(=S)O[C@H]3[C@@H](O)[C@H](n4ccc(=O)[nH]c4=O)O[C@@H]3COP(O)(=S)O[C@H]3[C@@H](O)[C@H](n4cnc5c(=O)[nH]c(N)nc54)O[C@@H]3COP(O)(=S)O[C@H]3[C@@H](O)[C@H](n4ccc(=O)[nH]c4=O)O[C@@H]3COP(O)(=S)O[C@H]3[C@@H](O)[C@H](n4cnc5c(=O)[nH]c(N)nc54)O[C@@H]3COP(O)(=S)O[C@H]3[C@@H](O)[C@H](n4ccc(=O)[nH]c4=O)O[C@@H]3COP(O)(=S)O[C@H]3[C@@H](O)[C@H](n4cnc5c(=O)[nH]c(N)nc54)O[C@@H]3COP(O)(=S)O[C@H]3[C@@H](O)[C@H](n4cnc5c(=O)[nH]c(N)nc54)O[C@@H]3COP(O)(=S)O[C@H]3[C@@H](O)[C@H](n4ccc(=O)[nH]c4=O)O[C@@H]3COP(O)(=S)O[C@H]3[C@@H](O)[C@H](n4ccc(=O)[nH]c4=O)O[C@@H]3COP(O)(=S)O[C@H]3[C@@H](O)[C@H](n4ccc(=O)[nH]c4=O)O[C@@H]3COP(O)(=S)O[C@H]3[C@@H](O)[C@H](n4ccc(N)nc4=O)O[C@@H]3CO)[C@H]2O)c(=O)n1 (stereo partly specified)
inactive	47%	–	–	Nc1ccn([C@@H]2O[C@H](COP(O)(=S)O[C@H]3[C@@H](O)[C@H](n4ccc(=O)[nH]c4=O)O[C@@H]3COP(O)(=S)O[C@H]3[C@@H](O)[C@H](n4ccc(N)nc4=O)O[C@@H]3COP(O)(=S)O[C@H]3[C@@H](O)[C@H](n4cnc5c(N)ncnc54)O[C@@H]3COP(O)(=S)O[C@H]3[C@@H](O)[C@H](n4cnc5c(=O)[nH]c(N)nc54)O[C@@H]3COP(O)(=S)O[C@H]3[C@@H](O)[C@H](n4ccc(=O)[nH]c4=O)O[C@@H]3COP(O)(=S)O[C@H]3[C@@H](O)[C@H](n4cnc5c(=O)[nH]c(N)nc54)O[C@@H]3COP(O)(=S)O[C@H]3[C@@H](O)[C@H](n4ccc(=O)[nH]c4=O)O[C@@H]3COP(O)(=S)O[C@H]3[C@@H](O)[C@H](n4cnc5c(=O)[nH]c(N)nc54)O[C@@H]3COP(O)(=S)O[C@H]3[C@@H](O)[C@H](n4ccc(=O)[nH]c4=O)O[C@@H]3COP(O)(=S)O[C@H]3[C@@H](O)[C@H](n4ccc(=O)[nH]c4=O)O[C@@H]3COP(O)(=S)O[C@H]3[C@@H](O)[C@H](n4cnc5c(=O)[nH]c(N)nc54)O[C@@H]3COP(O)(=S)O[C@H]3[C@@H](O)[C@H](n4ccc(=O)[nH]c4=O)O[C@@H]3COP(O)(=S)O[C@H]3[C@@H](O)[C@H](n4ccc(N)nc4=O)O[C@@H]3COP(O)(=S)O[C@H]3[C@@H](O)[C@H](n4ccc(=O)[nH]c4=O)O[C@@H]3COP(O)(=S)O[C@H]3[C@@H](O)[C@H](n4cnc5c(=O)[nH]c(N)nc54)O[C@@H]3COP(O)(=S)O[C@H]3[C@@H](O)[C@H](n4ccc(N)nc4=O)O[C@@H]3COP(O)(=S)O[C@H]3[C@@H](O)[C@H](n4ccc(N)nc4=O)O[C@@H]3COP(O)(=S)O[C@H]3[C@@H](O)[C@H](n4ccc(N)nc4=O)O[C@@H]3COP(O)(=S)O[C@H]3[C@@H](O)[C@H](n4cnc5c(=O)[nH]c(N)nc54)O[C@@H]3CO)[C@@H](O)[C@H]2O)c(=O)n1 (stereo partly specified)
